Data published in patent US12473276B2, “Compound having neuroprotective effect, preparation method therefor and use thereof” (Shanghai Zhimeng Biopharma, Inc., priority 2019, dated 2025).
Values joined by “and” are separate entries in the source; they are usually repeats but may differ in a detail not shown here. Equal entries are not always repeated.

Tested on: rat focal cerebral ischemia-reperfusion model (Middle cerebral artery occlusion, MCAO)
Experiment: Protective effect on focal cerebral ischemia reperfusion (MCAO) in rats: cerebral infarction area by TTC staining
Format: in vivo, Sprague Dawley (SD) rat
Conditions: for Cerebral infarction area in rats (%): 2.0 h ischemia then reperfusion, mean ± standard error; for Effect on reducing the cerebral infarct area in model rats compared with the model group (significance): P<0.05 significant; for Compared with the model group, the reduced proportion of cerebral infarction area in the compound group: versus model group of the same test
Description: Sprague Dawley (SD) rat, male, SPF grade, weight 250-280 g
• Compounds 04007, 04015, 04041, 04047, 04050 and 04089 • Commercially available edaravone injection, products of Nanjing Simcere dongyuan pharmaceutical Co., Ltd, specifications 10 mg/mL 1.3 Experimental Method 1.3.1 Preparation of Focal Cerebral Ischemia-Reperfusion Model
The rat focal cerebral ischemia-reperfusion model (Middle cerebral artery occlusion, MCAO) was prepared by internal carotid artery suture method. Rats were injected intraperitoneally with 7% chloral hydrate (6.0 mL/kg), and the depth of anesthesia was appropriate for severe stimulation of animals with slight reaction. The anesthetized rats were tightened with rubber bands on the limbs (the hind limbs were fixed above the knee joint, and the forelimbs were fixed above the wrist joint) and the head, and the animals were fixed on the operating table in the supine position, and the animal shaver was used from the head end to the chest to shave hair, and the skin was disinfected with alcohol. The neck was cut in the middle and the subcutaneous tissue was blunt separated. […] The arterial shell was opened, the right carotid bifurcation was exposed, and the right common carotid artery, external carotid artery, internal carotid artery were separated, the vagus nerve was gently peeled off, the external carotid artery was ligated and cut off. The end of the common carotid artery proximity to the heart was clamped, and an incision was made from the distal end of the ligature line of the external carotid artery, suture was inserted and entered into the internal carotid artery through the bifurcation of the common carotid artery, and then slowly inserted until there was slight resistance (about 20 mm from the bifurcation), all blood supply of the middle cerebral artery was blocked. The suture was slightly fixed with the silk under the incision of the external carotid artery, the clamping silk at the end of the common carotid artery proximity to the heart was loosen, the wound surface was covered with gauze soaked with disinfected normal saline, and the rats were kept warm by placing on the heat preservation mat. After right cerebral ischemia for 2.0 h, the suture was gently pulled out, blood supply was restored for reperfusion, the external carotid artery was ligated with the silk fixing the suture, the skin was sutured, and disinfected.
The experimental animals were divided into model group, edaravone group (6 mg/kg) and compound to be tested group (5 mg/kg ration of compound to be tested: 5% DMAC+5% Solutol HS 15+90% Saline were used to prepare a solution with a concentration of 1 mg/mL.
After the ischemia model was prepared, the animals were assigned to each group in a single blind with equal probability. The animals were administered intravenously once immediately after reperfusion, and the animals in the model group were given the same volume of normal saline. The animals were sacrificed 24 hours after ischemia, the brain was taken, stained and photographed to determine the area of cerebral infarction.
The degree of cerebral infarction was determined by TTC, staining. After the evaluation of the symptoms of neurological defects in animals was completed, the animals were killed with CO2, the brain was taken by decapitation, the olfactory bulb, cerebellum and low brainstem were removed, blood stains on the surface of the brain were washed with normal saline, residual water stains on the surface were sucked out, and placed at −20° C. for 20 min. Immediately after taking out, the coronal section was made vertically downward at the intersection plane of the line of sight, and cut a slice every 2 mm backwards, the brain slices were incubated in 1% TTC dye solution (37° C. for 20 min). The normal brain tissue was dyed crimson, while the ischemic brain tissue was pale. […]

[1] = compound 5 mg/kg intravenously once immediately after reperfusion, measured 24 hours after ischemia
[2] = compound 5 mg/kg versus edaravone 6 mg/kg

Row | Compound | Cerebral infarction area in rats (%) [1] | Effect on reducing the cerebral infarct area in model rats compared with the model group (significance) (compound 5 mg/kg i.v.) | Compared with the model group, the reduced proportion of cerebral infarction area in the compound group (compound 5 mg/kg i.v.) | Efficacy compared with the positive control drug edaravone group [2] | Cerebral infarction area of rats in edaravone group in the same test(%) (edaravone 6 mg/kg intravenously once immediately after reperfusion, measured 24 hours after ischemia, one value per test run) | Cerebral infarction area in rats (%) (compound 0.5 mg/kg intravenously once immediately after reperfusion, measured 24 hours after ischemia) | Effect on reducing the cerebral infarct area in model rats compared with the model group (significance) (compound 0.5 mg/kg i.v.) | Compared with the model group, the reduced proportion of cerebral infarction area in the compound group (compound 0.5 mg/kg i.v.) | Efficacy compared with the positive control drug edaravone group (compound 0.5 mg/kg versus edaravone 6 mg/kg)
1 | CN1CC(OC(=O)c2ccc(N3Cc4cc(Cl)cc(Cl)c4OC3=S)cn2)C1 [Compound 04007] | 35.41 ± 3.71% | significantly reduce the cerebral infarct area | 26% | equivalent or better efficacy |  |  |  |  | 
2 | CC1=NN(c2ccccc2)C(=O)C1 [edaravone, reference compound] |  |  |  |  | 32.08% and 27.44% and 28.47% and 32.45% |  |  |  | 
3 | C#CCCOC(=O)c1ccc(N2Cc3cc(Cl)cc(Cl)c3OC2=S)cn1 [Compound 04050] | 30.97 ± 4.33% | significantly reduce the cerebral infarct area | 26% | equivalent or better efficacy |  |  |  |  | 
4 | CCOC(=O)c1ccc(Cn2c(=S)oc3c(Cl)cc(Cl)cc32)cc1O [Compound 04041] | 30.37 ± 4.36% | significantly reduce the cerebral infarct area | 37% | equivalent or better efficacy |  |  |  |  | 
5 | CC(C)OC(=O)c1ccc(N2COc3c(Cl)cc(Cl)cc3C2)cn1 [Compound 04047] | 35.47 ± 5.34% | no significant effect on reducing the cerebral infarct area | 15% |  |  |  |  |  | 
6 | CCOCCOC(=O)c1ccc(N2Cc3cc(Cl)cc(Cl)c3OC2=S)cn1 [Compound 04089] |  |  |  |  |  | 27.80 ± 2.22% | significantly reduce the cerebral infarct area | 34% | equivalent or better efficacy
